# Source: patent US11919837B1, “4,4′-naphthalene-1,5-diylbis(diazene-2,1-diyl)dinaphthalen-1-ol as an antioxidant compound” (KING FAISAL UNIVERSITY, priority 2023, dated 2024)
# Experiment: DPPH radical scavenging antioxidant test
# Format: biochemical
# Details: 517 nm; for Inhibition (radical scavenging inhibition): 0.2 mL DPPH (0.75 mM), compound 3 μM in ethanol, 30 min incubation in the dark
# Method: The antioxidant properties of the 4,4′-naphthalene-1,5-diylbis(diazene-2,1-diyl)dinaphthalen-1-ol were studied by adding 0.2 mL DPPH (0.75 mM)) to compound 4,4′-naphthalene-1,5-diylbis(diazene-2,1-diyl)dinaphthalen-1-01 (III) (3 μM) in ethanol. After 30 min of incubation in the dark, the absorbance was read against a blank at 517 nm. Ascorbic acid (vitamin C) was used as standard antioxidants (positive control). A blank sample was prepared by 0.2 ml of DPPH in 3 ml ethanol. A negative control sample was run using ethanol instead of the sample. The radical scavenging inhibition was calculated using the following equation: […]
SMILES,Inhibition (radical scavenging inhibition) [%],"antioxidant potential compared to vitamin C (in words) (DPPH in vitro test, vitamin C as positive control)"
"O=C1O[C@H]([C@@H](O)CO)C(O)=C1O [vit c, Ascorbic acid, reference compound]",74,–
"Oc1ccc(N=Nc2cccc3c(N=Nc4ccc(O)c5ccccc45)cccc23)c2ccccc12 [Product III, 4,4′-naphthalene-1,5-diylbis(diazene-2,1-diyl)dinaphthalen-1-ol]",54,high potential as an antioxidant compared to vitamin C
